Holding throughout (format): physicochemical
Series [1] is described as follows: Competitive slurry experiments (thermodynamic stability of solid forms). The following applies: for Form/Pattern after slurrying for 3 days: 1:1 mixture with Form I, 40° C., XRPD; for thermodynamic stability of the solid form, in words: conclusion from competitive slurry experiments and thermal data. The procedure: The slurries were stirred at 40° C. for 3 days. After 3 days, the solids were filtered centrifugally and analysed by XRPD.

Series [2] in a line: Dynamic vapour sorption (DVS), hygroscopicity. The note with it: for mass gain at 90% relative humidity (DVS): 25° C.; for hygroscopicity (DVS), in words: RH up to 90%. The procedure: Approximately 10-20 mg of sample was placed into a mesh vapour sorption balance pan and loaded into a DVS Intrinsic or Advantage dynamic vapour sorption balance by Surface Measurement Systems. The sample was subjected to a ramping profile from 40-90% relative humidity (RH) at 10% increments, maintaining the sample at each step until a stable weight had been achieved (dm/dt 0.004%, minimum step length 30 minutes, maximum step length 120 minutes) at 25° C. After completion of the sorption cycle, the sample was dried using the same procedure to 0% RH and then a second sorption cycle back to 40% RH. Two cycles were performed. The weight change during the sorption/desorption cycles were plotted, allowing for the hygroscopic nature of the sample to be determined. XRPD analysis was then carried out on any solid retained.

Series [3] can be described thus: Storage at 40° C./75% RH in an open vial, XRPD. The following applies: 3 days. The procedure:
200 mg SCO-101, Form III (Pattern 24) was placed at 40° C./75% RH in an open vial covered with tissue for 3 days.

The nature of series [4]: Variable temperature XRPD (VT-XRPD) of solid form conversion. The note with it: mixture of Form III and Form IV at 150° C.
Where [5] appears, read: saturated acetone:heptane (50:50% v/v).
[6] abbreviates: saturated acetone:water (50:50% v/v).

“Also recorded” adds a separate entry of the source.

Turning to `O=C(Nc1cc(C(F)(F)F)cc(C(F)(F)F)c1)Nc1ccc(Br)cc1-c1nnn[nH]1` [Pattern 5, N-[4-Bromo-2-(1H-1,2,3,4-tetrazol-5-yl)phenyl]-N′-[3,5-bis(trifluoromethyl)phenyl]urea], the “Form/Pattern after slurrying for 3 days” value in series [1] (setting [5]) and in series [1] (setting [6]) was “Form I” in each case.

Turning to `O=C(Nc1cc(C(F)(F)F)cc(C(F)(F)F)c1)Nc1ccc(Br)cc1-c1nnn[nH]1` [Form I, N-[4-Bromo-2-(1H-1,2,3,4-tetrazol-5-yl)phenyl]-N′-[3,5-bis(trifluoromethyl)phenyl]urea], the “mass gain at 90% relative humidity (DVS)” value in series [2] (90% RH) is reported as “no increase in mass”. Besides, the “hygroscopicity (DVS), in words” value in series [2] and in series [2] (listed as crystal form I) was “non-hygroscopic” in each case. Moreover, in series [1], the “thermodynamic stability of the solid form, in words” value is “thermodynamically most stable polymorph; also recorded: thermodynamically stable polymorph”.

As to `O=C(Nc1cc(C(F)(F)F)cc(C(F)(F)F)c1)Nc1ccc(Br)cc1-c1nnn[nH]1` [Form II, N-[4-Bromo-2-(1H-1,2,3,4-tetrazol-5-yl)phenyl]-N′-[3,5-bis(trifluoromethyl)phenyl]urea], the “water absorbed at 90% RH (DVS)” value in series [2] (90% RH) is reported as “approx. 6 % (w/w)”. Also, in series [2] (90% RH), the “mass gain at 90% relative humidity (DVS)” value is “approx 6%”. Besides, the “weight gain when increasing RH from 70% to 80% (DVS)” value in series [2] (RH 70% to 80%, corresponds to monohydrate) is given as 3%. The “hygroscopicity (DVS), in words” value in series [2] was “takes up water to form a hydrate; also recorded: hygroscopic”; in series [2] (listed as crystal form II) it was “hygroscopic”. The “Form/Pattern after slurrying for 3 days” value in series [1] (setting [5]) and in series [1] (setting [6]) was “Form I” throughout. In series [1], the “thermodynamic stability of the solid form, in words” value was “metastable form”.

Consider `O=C(Nc1cc(C(F)(F)F)cc(C(F)(F)F)c1)Nc1ccc(Br)cc1-c1nnn[nH]1` [Form III, N-[4-Bromo-2-(1H-1,2,3,4-tetrazol-5-yl)phenyl]-N′-[3,5-bis(trifluoromethyl)phenyl]urea], for which the “solid form after storage (XRPD)” value in series [3] is “Form IV, Pattern 29”. The “temperature of complete transformation into Form IV (VT-XRPD)” value in series [4] amounted to 155 °C.

The values are drawn from patent US20240360087A1, “THERMODYNAMICALLY STABLE FORM OF SCO-101” (SCANDION ONCOLOGY A/S, priority 2021, published 2024).
